One block for each sequence: values may come before it.
What was measured:
human TLR9 = biological target: T1, human TLR9 (Homo sapiens, UniProt Q9NR96); assay: Inhibition of CpG ODN 2006-mediated NF-κB-luciferase activation in hTLR9-LUC-293 cells; conditions: for Percent 2006 Activity: equimolar 0.156 μM CpG ODN 2006 and inhibitory ODN; for inhibitory for TLR9: general statement 'found according to the present invention', conditions not given; for inhibition of hTLR9 (CpG ODN 2006-mediated luciferase activity), in words: 0.156 μM CpG ODN 2006, increasing ODN, 16 h
T1 sequence (Q9NR96 26-1032): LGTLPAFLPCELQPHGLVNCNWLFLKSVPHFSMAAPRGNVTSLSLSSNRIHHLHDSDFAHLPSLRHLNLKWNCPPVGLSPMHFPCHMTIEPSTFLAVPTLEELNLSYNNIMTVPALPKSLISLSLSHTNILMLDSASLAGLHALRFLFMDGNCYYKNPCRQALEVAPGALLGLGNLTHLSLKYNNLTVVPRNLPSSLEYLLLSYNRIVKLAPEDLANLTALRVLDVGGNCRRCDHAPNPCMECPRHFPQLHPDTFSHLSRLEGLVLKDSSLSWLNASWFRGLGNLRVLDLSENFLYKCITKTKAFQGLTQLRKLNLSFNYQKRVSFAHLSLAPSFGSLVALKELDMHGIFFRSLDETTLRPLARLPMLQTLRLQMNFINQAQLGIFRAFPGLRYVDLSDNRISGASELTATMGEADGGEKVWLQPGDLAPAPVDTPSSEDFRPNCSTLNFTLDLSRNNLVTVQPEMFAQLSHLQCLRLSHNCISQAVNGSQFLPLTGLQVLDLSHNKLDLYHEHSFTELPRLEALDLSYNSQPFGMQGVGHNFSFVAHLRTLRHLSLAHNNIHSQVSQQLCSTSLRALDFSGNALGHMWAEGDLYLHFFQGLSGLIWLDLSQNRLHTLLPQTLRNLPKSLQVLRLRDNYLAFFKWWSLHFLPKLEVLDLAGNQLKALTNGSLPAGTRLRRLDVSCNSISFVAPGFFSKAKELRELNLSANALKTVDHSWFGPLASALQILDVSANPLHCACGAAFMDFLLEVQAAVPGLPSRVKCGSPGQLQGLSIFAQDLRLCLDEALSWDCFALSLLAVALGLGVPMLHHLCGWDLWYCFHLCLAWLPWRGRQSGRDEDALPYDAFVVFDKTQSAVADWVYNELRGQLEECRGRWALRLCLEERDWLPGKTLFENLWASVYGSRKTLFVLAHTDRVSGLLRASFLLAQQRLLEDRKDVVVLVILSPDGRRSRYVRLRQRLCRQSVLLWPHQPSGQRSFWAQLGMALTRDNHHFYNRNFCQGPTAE

human TLR8 = biological target: T2, human TLR8 (Homo sapiens, UniProt Q9NR97); assay: Inhibition of R-848-mediated NF-κB-luciferase activation in hTLR8-LUC-293 cells; assay type: cell-based; conditions: for inhibitory for TLR8: general statement 'found according to the present invention', conditions not given
T2 construct: expressed in transfected cells
T2 sequence (Q9NR97 27-1041): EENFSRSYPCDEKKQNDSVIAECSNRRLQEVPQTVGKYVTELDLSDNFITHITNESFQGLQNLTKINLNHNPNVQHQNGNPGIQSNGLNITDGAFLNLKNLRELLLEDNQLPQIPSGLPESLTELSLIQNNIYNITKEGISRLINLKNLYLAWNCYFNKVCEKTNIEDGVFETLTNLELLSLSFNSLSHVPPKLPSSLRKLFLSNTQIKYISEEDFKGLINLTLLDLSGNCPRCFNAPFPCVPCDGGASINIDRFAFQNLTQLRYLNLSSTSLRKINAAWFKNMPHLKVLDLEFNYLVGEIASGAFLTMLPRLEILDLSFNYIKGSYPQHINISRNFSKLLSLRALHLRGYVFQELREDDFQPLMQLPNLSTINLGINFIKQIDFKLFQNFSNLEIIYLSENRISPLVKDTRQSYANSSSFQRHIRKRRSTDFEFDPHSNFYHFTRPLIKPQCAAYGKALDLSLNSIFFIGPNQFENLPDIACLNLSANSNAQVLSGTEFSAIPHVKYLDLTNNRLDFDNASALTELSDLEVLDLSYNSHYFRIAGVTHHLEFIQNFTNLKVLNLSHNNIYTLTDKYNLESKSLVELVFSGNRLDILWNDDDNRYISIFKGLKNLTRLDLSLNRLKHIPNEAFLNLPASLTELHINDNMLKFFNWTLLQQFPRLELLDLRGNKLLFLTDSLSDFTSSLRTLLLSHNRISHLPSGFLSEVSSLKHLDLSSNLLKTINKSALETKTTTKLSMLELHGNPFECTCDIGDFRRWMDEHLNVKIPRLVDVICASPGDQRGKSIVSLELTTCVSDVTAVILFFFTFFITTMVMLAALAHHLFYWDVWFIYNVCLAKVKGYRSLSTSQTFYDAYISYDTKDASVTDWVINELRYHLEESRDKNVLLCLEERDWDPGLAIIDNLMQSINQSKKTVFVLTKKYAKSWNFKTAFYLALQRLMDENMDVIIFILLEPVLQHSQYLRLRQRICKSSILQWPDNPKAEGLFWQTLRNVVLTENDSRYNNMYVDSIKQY
Description: The previous examples describe the ability of certain inhibitory ODN to inhibit activation of signal transduction mediated by human Toll-like receptor 9 (hTLR9). […] The assay system involved stimulating hTLR8-LUC-293 cells with the TLR8 ligand, R-848 (Resiquimod; Jurk M et al. (2002) Nat Immunol 3:499) in the presence and absence of ODN and comparing the induction of luciferase activity in the absence of ODN to luciferase activity in the presence of ODN.
Cells were assayed for luciferase activity 16 h later. Results were calculated as fold induction above medium background.
Luciferase activity was assayed after 16 h.
hTLR8-LUC-293 cells were incubated with 50 μM R-848 in the presence of increasing concentrations of the following ODN: ODN 2088, D13GT (whererin D is dSpacer), GTN13, N6GTN7, random 15-mer N15, N13GT, and the dinucleotide GT. Luciferase activity was assayed after 16 h. Luciferase activity of R-848 without any ODN was set to 100% (without correction for medium background, i.e. background activity of medium remained at approx. 17%).
Luciferase activity was assayed after 16 h. Luciferase activity of R-848 without any ODN was set to 100% (without correction for medium background, i.e., background activity of medium remained at approx. 17%).
In yet a further set of experiments hTLR8-LUC-293 cells were incubated with 50 μM R-848 in the presence of increasing amounts of different dinucleotides (GT, ODN 603; TG, ODN 688; GG, ODN 689; GU, ODN 690; UG, ODN 691; AT, ODN 692; and TT, ODN 693). Luciferase was assayed after 16 h. Luciferase activity of R-848 without any ODN was set to 100% and remaining R-848-mediated NF-κB activation in the presence of dinucleotides or ODN 2088 was calculated. Medium background was 17% in this set of experiments.
hTLR-LUC-293 cells (expressing the respective humanTLR7, TLR8, or TLR9) were incubated with constant amounts of TLR-agonist (for hTLR7: 2 μM R-848, for hTLR8: 50 μM R-848, and for hTLR9: 0.156 μM CpG ODN 2006) and increasing amounts of TLR-antagonist. […] To compare data for different TLRs, percent remaining activity of agonist was plotted against the log of molar ratio of antagonist to agonist (e.g., for hTLR8: 50 μM R-848 and 5 μM ODN, the plotted ratio is 10^−1). Used ODN concentrations were: for hTLR7 and hTLR8, 5 μM, 0.5 μM, 0.05 μM, and 0.005 μM, and for hTLR9, 2.5 μM, 0.156 μM, 0.0098 μM and 0.00061 μM.

[1] = Table 3 (nucleotides flanking 5′ CC, truncations)
[2] = Table 2 (5′ CC replaced by other dinucleotides)
[3] = Table 1 (length b / Spacer 18 variants)

Sequence: ACCTGGCGGGGAAGT (DNA, backbone and methylation of C not given here) [ODN 941]
Percent 2006 Activity (human TLR9; [1]): 11%
inhibitory for TLR9 (human TLR9): inhibitory
inhibitory for TLR8 (human TLR8): inhibitory

Sequence: CCCTGGCGGGGAAGT (DNA, backbone and methylation of C not given here) [ODN 942]
Percent 2006 Activity (human TLR9; [1]): 8%
inhibitory for TLR9 (human TLR9): inhibitory
inhibitory for TLR8 (human TLR8): inhibitory

inhibitory for TLR9 (human TLR9): inhibitory
inhibitory for TLR8 (human TLR8): not for TLR8
Sequence: CCTCAAGCTTGAGGGG [SEQ ID NO:13]

Sequence: CTGGCGGGGAAGT (DNA, backbone and methylation of C not given here) [ODN 962]
Percent 2006 Activity (human TLR9; [1]): 122%
inhibition of hTLR8 (R-848 activity), in words (human TLR8; 50 μM R-848, increasing ODN (up to 5 μM), 16 h): specific inhibition

Sequence: GCCTGGCGGGGAAGT (DNA, backbone and methylation of C not given here) [ODN 940]
Percent 2006 Activity (human TLR9; [1]): 13%
inhibitory for TLR9 (human TLR9): inhibitory
inhibitory for TLR8 (human TLR8): inhibitory

inhibition of hTLR9 (CpG ODN 2006-mediated luciferase activity), in words (human TLR9): not
Sequence: NNNNNNNNNNNNNN [ODN 605, reference compound]

Sequence: TAATGGCGGGGAAGT (DNA, backbone and methylation of C not given here) [ODN 959]
Percent 2006 Activity (human TLR9; [2]): 92%

Sequence: TACTGGCGGGGAAGT (DNA, backbone and methylation of C not given here) [ODN 074]
Percent 2006 Activity (human TLR9; [2]): 132%

Sequence: TAGTGGCGGGGAAGT (DNA, backbone and methylation of C not given here) [ODN 441]
Percent 2006 Activity (human TLR9; [2]): 105%

Sequence: TATTGGCGGGGAAGT (DNA, backbone and methylation of C not given here) [ODN 442]
Percent 2006 Activity (human TLR9; [2]): 101%

Sequence: TCATGGCGGGGAAGT (DNA, backbone and methylation of C not given here) [ODN 073]
Percent 2006 Activity (human TLR9; [2]): 114%

Sequence: TCCAGGCGGGGAAGT (DNA, backbone and methylation of C not given here) [ODN 157]
Percent 2006 Activity (human TLR9; [1]): 14%

Sequence: TCCCGGCGGGGAAGT (DNA, backbone and methylation of C not given here) [ODN 155]
Percent 2006 Activity (human TLR9; [1]): 11%
inhibitory for TLR9 (human TLR9): inhibitory
inhibitory for TLR8 (human TLR8): inhibitory

Sequence: TCCGGGCGGGGAAGT (DNA, backbone and methylation of C not given here) [ODN 156]
Percent 2006 Activity (human TLR9; [1]): 10%
inhibitory for TLR9 (human TLR9): inhibitory
inhibitory for TLR8 (human TLR8): inhibitory

Sequence: TCCTAGCGGGGAAGT (DNA, backbone and methylation of C not given here) [SEQ ID NO:10]
inhibitory for TLR9 (human TLR9): inhibitory
inhibitory for TLR8 (human TLR8): inhibitory

Sequence: TCCTAGCGGGGGCGTCCTAT (chemistry not given here) [SEQ ID NO:12]
inhibitory for TLR9 (human TLR9): inhibitory
inhibitory for TLR8 (human TLR8): not for TLR8

Sequence: TCCTGGCGGGGAA (DNA, backbone and methylation of C not given here) [ODN 969]
inhibition of hTLR9 (CpG ODN 2006-mediated luciferase activity), in words (human TLR9): inhibited

Sequence: TCCTGLGGGGAAGT (Spacer 18 hexaethyleneglycol spacer, as printed in the source, key not given here) [ODN 493]
Percent 2006 Activity (human TLR9; [3]): 54%

Sequence: TCCTGLLGGGGAAGT (two Spacer 18 hexaethyleneglycol spacers, as printed in the source, key not given here) [ODN 492]
Percent 2006 Activity (human TLR9; [3]): 67%

Sequence: TCCTGTGTGTGTGTCGGGGAAGT (listed as DNA, chemistry not given here) [ODN 494]
Percent 2006 Activity (human TLR9; [3]): 47%

Sequence: TCCTGTGTGTGTGTGTCGGGGAAGT (listed as DNA, chemistry not given here) [ODN 495]
Percent 2006 Activity (human TLR9; [3]): 34%

Sequence: TCGTGGCGGGGAAGT (DNA, backbone and methylation of C not given here) [ODN 435]
Percent 2006 Activity (human TLR9; [2]): 77%

Sequence: TCTTGGCGGGGAAGT (DNA, backbone and methylation of C not given here) [ODN 437]
Percent 2006 Activity (human TLR9; [2]): 89%

Sequence: TGGTGGCGGGGAAGT (DNA, backbone and methylation of C not given here) [ODN 436]
Percent 2006 Activity (human TLR9; [2]): 90%

Sequence: TTATGGCGGGGAAGT (DNA, backbone and methylation of C not given here) [ODN 439]
Percent 2006 Activity (human TLR9; [2]): 91%

Sequence: TTCTGGCGGGGAAGT (DNA, backbone and methylation of C not given here) [ODN 440]
Percent 2006 Activity (human TLR9; [2]): 90%

Sequence: TTGTGGCGGGGAAGT (DNA, backbone and methylation of C not given here) [ODN 438]
Percent 2006 Activity (human TLR9; [2]): 95%

Sequence: TTTTGGCGGGGAAGT (DNA, backbone and methylation of C not given here) [ODN 072]
Percent 2006 Activity (human TLR9; [2]): 121%

Reference: patent US20050239733A1, “Sequence requirements for inhibitory oligonucleotides” (Coley Pharmaceutical GmbH, priority 2003, published 2005)
